“And” between values parts separate entries of the source, which are not always exact repeats. Identical values can stand only once.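 96-well plates; 48 h exposure; 5 concentrations. Endpoints by linear interpolation between flanking doses. Not reached: highest tested concentration assigned. Here, GI50 denotes the concentration required for 50% inhibition of growth.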 The source made the active and inactive calls. No stated cut-off is given here; in the data, active = GI50 up to about 1.1 µM and inactive = higher.
Key:
Assay in all cases: inhibition of tumour cell growth, NCI panel, 48 h
[1] = tested on: DLD-1
[2] = tested on: DMS-114
[3] = tested on: DMS-273
[4] = tested on: HOP-18
[5] = tested on: KM-20L2
[6] = tested on: LXFL 529
[7] = tested on: M19-MEL
[8] = tested on: SNB-78
[9] = tested on: RXF 631

Row | SMILES | GI50 [1] | GI50 [2] | GI50 [3] | GI50 [4] | GI50 [5] | GI50 [6] | GI50 [7] | GI50 [8] | GI50 [9]
1 | COc1c(Cl)c(Cl)c(OC)c2c1C(=O)C=CC2=O | 14.5 µM (inactive) | 16 µM (inactive) | 15.2 µM (inactive) | 44.5 µM (inactive) | 68.2 µM (inactive) | 15.8 µM (inactive) | 18 µM (inactive) | 13 µM (inactive) | –
2 | O=C(/C=C/c1ccc(Cl)c(Cl)c1)c1ccc2ccccc2c1 | > 100 µM (inactive) | > 100 µM (inactive) | > 100 µM (inactive) | > 100 µM (inactive) | > 100 µM (inactive) | > 100 µM (inactive) | > 100 µM (inactive) | > 100 µM (inactive) | > 100 µM (inactive)
3 | CCN(CC)CCC(=O)N1CCc2c([nH]c3ccccc23)C1c1cccnc1 (configuration not stated) | > 100 µM (inactive) | > 100 µM (inactive) | > 100 µM (inactive) | > 100 µM (inactive) | > 100 µM (inactive) | > 100 µM (inactive) | > 100 µM (inactive) | > 100 µM (inactive) | –
4 | CCCN(CCC)c1c([N+](=O)[O-])cc(C(=O)N(CCO)CCO)cc1[N+](=O)[O-] | > 100 µM (inactive) | – | > 100 µM (inactive) | > 100 µM (inactive) | – | > 100 µM (inactive) | > 100 µM (inactive) | > 100 µM (inactive) | –
5 | CCOc1ccc(NC(=O)/C(=C/c2ccccc2)C(C)=O)cc1 | 7.38 µM (inactive) | 11.9 µM (inactive) | 9.14 µM (inactive) | 12.9 µM (inactive) | 12.9 µM (inactive) | – | 10.8 µM (inactive) | 13.4 µM (inactive) | –
6 | C[N+](C)(C)CC(=O)N/N=C(/C(=O)Nc1ccc(Br)cc1)C1C(=O)NC(=O)NC1=O | > 100 µM (inactive) | > 100 µM (inactive) | > 100 µM (inactive) | > 100 µM (inactive) | > 100 µM (inactive) | > 100 µM (inactive) | > 100 µM (inactive) | > 100 µM (inactive) | > 100 µM (inactive)
7 | O=C(Cc1ccc(F)cc1)NC1=C(Cl)C(=O)c2ccccc2C1=O | 2.18 µM (inactive) | 0.514 µM (active) | 3.63 µM (inactive) | – | 17.7 µM (inactive) | 2.8 µM (inactive) | 3.74 µM (inactive) | 7.03 µM (inactive) | 7.36 µM (inactive)
8 | COc1ccc2nc(NC(=O)C(=O)CC(=O)c3ccc([N+](=O)[O-])cc3)sc2c1 | > 100 µM (inactive) | 90.6 µM (inactive) | > 100 µM (inactive) | – | > 100 µM (inactive) | > 100 µM (inactive) | > 100 µM (inactive) | – | > 100 µM (inactive)
9 | CC[C@]1(O)C(=O)OCc2c1cc1n(c2=O)Cc2cc3c(N)cccc3nc2-1 | > 100 µM (inactive) | > 100 µM (inactive) | > 100 µM (inactive) | > 100 µM (inactive) | > 100 µM (inactive) | > 100 µM (inactive) | > 100 µM (inactive) | – | > 100 µM (inactive)
10 | C[N+](C)(C)CCc1ccccc1 | > 100 µM (inactive) | > 100 µM (inactive) | > 100 µM (inactive) | – | > 100 µM (inactive) | > 100 µM (inactive) | > 100 µM (inactive) | > 100 µM (inactive) | > 100 µM (inactive)
11 | Cc1ccc(C(=O)O/N=C2/CCCC/C2=C\c2ccccc2)cc1 | 78.5 µM (inactive) | – | 27.7 µM (inactive) | > 100 µM (inactive) | 83.9 µM (inactive) | 16.9 µM (inactive) | 67.9 µM (inactive) | 15.6 µM (inactive) | –
12 | Cc1cc(C)c(-n2c(-c3ccccc3)cs/c2=N\N=C2C=C(C(C)(C)C)C(=O)C(C(C)(C)C)=C2)c(C)c1 | > 100 µM (inactive) | 47.4 µM (inactive) | > 100 µM (inactive) | > 100 µM (inactive) | > 100 µM (inactive) | 75.5 µM (inactive) | > 100 µM (inactive) | > 100 µM (inactive) | –
13 | O=C(CC(=O)n1nc(-c2ccccc2)c(/N=N/c2ccc([N+](=O)[O-])cc2)c1-c1ccccc1)Nc1ccc(Cl)cc1 | 22 µM (inactive) | 5.92 µM (inactive) | 19.9 µM (inactive) | 26.4 µM (inactive) | 3.25 µM (inactive) | 8.73 µM (inactive) | 35.6 µM (inactive) | 88.5 µM (inactive) | 55.6 µM (inactive)
14 | NNC(=O)CC(=O)Nc1ccccc1F | > 100 µM (inactive) | > 100 µM (inactive) | > 100 µM (inactive) | > 100 µM (inactive) | > 100 µM (inactive) | > 100 µM (inactive) | > 100 µM (inactive) | > 100 µM (inactive) | > 100 µM (inactive)
15 | C(=C\c1c2oc(-c3ccccc3)cc(-c3ccccc3)c-2c2ccccc12)/C=C1\c2ccccc2-c2c(-c3ccccc3)cc(-c3ccccc3)[o+]c21.[O-][Cl+3]([O-])([O-])[O-] | > 100 µM (inactive) | > 100 µM (inactive) | > 100 µM (inactive) | – | > 100 µM (inactive) | > 100 µM (inactive) | > 100 µM (inactive) | > 100 µM (inactive) | –
16 | COc1cccc2c1C(=O)C=CC2=O | 7.19 µM (inactive) | 4.92 µM (inactive) | 15 µM (inactive) | 10.4 µM (inactive) | 16.7 µM (inactive) | 2.33 µM (inactive) | 4.45 µM (inactive) | 4.54 µM (inactive) | –
17 | CC(SC(=S)N1CCOCC1)c1cc2oc(=O)n(C)c2cc1Cl (configuration not stated) | > 100 µM (inactive) | 84.5 µM (inactive) | > 100 µM (inactive) | > 100 µM (inactive) | > 100 µM (inactive) | 57.4 µM (inactive) | > 100 µM (inactive) | > 100 µM (inactive) | –
18 | CCOC(=O)C(C(O)c1ccc([N+](=O)[O-])cc1)P(=O)(OCC)OCC (configuration not stated) | > 100 µM (inactive) | – | > 100 µM (inactive) | > 100 µM (inactive) | > 100 µM (inactive) | > 100 µM (inactive) | 77.6 µM (inactive) | – | > 100 µM (inactive)
19 | CCOC(=O)c1ccc(/N=C/c2ccc(N(CCC#N)S(=O)(=O)c3ccccc3)cc2C)cc1 | 25.1 µM (inactive) | 36 µM (inactive) | 65.3 µM (inactive) | – | 16.4 µM (inactive) | 6.01 µM (inactive) | 36.6 µM (inactive) | 33.2 µM (inactive) | > 100 µM (inactive)
20 | O=c1oc2ccccc2[n+]([O-])c1-c1ccccc1 | > 100 µM (inactive) | > 100 µM (inactive) | > 100 µM (inactive) | > 100 µM (inactive) | > 100 µM (inactive) | > 100 µM (inactive) | > 100 µM (inactive) | > 100 µM (inactive) | > 100 µM (inactive)
21 | Cc1cc(C)c(C(=O)C(C)C(c2ccccc2)c2ccc(Cl)cc2)c(C)c1 (configuration not stated) | > 100 µM (inactive) | > 100 µM (inactive) and 76.7 µM (inactive) | – | > 100 µM (inactive) | – | 63.5 µM (inactive) | 43.9 µM (inactive) and 33.3 µM (inactive) | – | > 100 µM (inactive) and 95.1 µM (inactive)
22 | CN(C)C=C1C(=O)N(C)C(=O)N(C)C1=O | > 100 µM (inactive) | > 100 µM (inactive) | > 100 µM (inactive) | > 100 µM (inactive) | > 100 µM (inactive) | > 100 µM (inactive) | > 100 µM (inactive) | > 100 µM (inactive) | –
23 | C=C1C(=O)OC2C1C(OC(=O)/C(=C/C)COC(C)=O)CC1(CO1)C1C(OC(=O)/C(=C/C)CO)C=C(C)C21 (configuration not stated) | 1.34 µM (inactive) | 1.85 µM (inactive) | 1.73 µM (inactive) | 1.34 µM (inactive) | 2.52 µM (inactive) | 0.427 µM (active) | 1.79 µM (inactive) | 1.65 µM (inactive) | –
24 | Cc1ccc(S(=O)(=O)c2ccc(C)cc2[N+](=O)[O-])cc1 | > 100 µM (inactive) | 22.4 µM (inactive) | > 100 µM (inactive) | > 100 µM (inactive) | > 100 µM (inactive) | 44.3 µM (inactive) | 47.1 µM (inactive) | 64.4 µM (inactive) | –
25 | C=C/C=C(\NC(=O)C(Cl)(Cl)Cl)[Si](C)(C)C | > 100 µM (inactive) | > 100 µM (inactive) | > 100 µM (inactive) | > 100 µM (inactive) | > 100 µM (inactive) | > 100 µM (inactive) | > 100 µM (inactive) | > 100 µM (inactive) | –
26 | Cc1c2cc[n+](C)cc2c(C)c2c1[nH]c1ccc(O)c(OCC(F)(F)F)c12 | 2.34 µM (inactive) | 0.938 µM (active) | 1.58 µM (inactive) | – | 7.13 µM (inactive) | 0.807 µM (active) | 2.42 µM (inactive) | 1.16 µM (inactive) | 2.78 µM (inactive)
27 | COc1ccc(C/C(=N/O)C(=O)NCCc2cc(Br)c(OCCCN(C)C)c(Br)c2)cc1Br [APLYSAMINE 2] | 7.8 µM (inactive) | 18.5 µM (inactive) | 0.791 µM (active) | 0.0528 µM (active) | 18.5 µM (inactive) | 16.1 µM (inactive) | 18.2 µM (inactive) | 18.5 µM (inactive) | –

Reference: ChEMBL document CHEMBL1201862, “PubChem BioAssay data set” (2004)
